As a reminder, the IC50 is the concentration that inhibits the measured activity by half.

Where two headings read alike, the source gives them in different places.

The subject of one assay is HCC1395 cells. Briefly: HCC1395 cell proliferation (Cell Titer-Glo, 6 days). In kind it is cell-based. To be noted: KIF18A-insensitive tumor cells. The procedure:
(§1) The inhibitory effect on the KIF18A target by the compounds of the present disclosure was evaluated by testing the inhibitory effect on proliferation of HCC1954 and HCC1395 cells by the compounds of the present disclosure.
(§2) HCC1954 (ATCC, CRL-2388) and HCC1395 (ATCC, CRL-2324) cells were cultured separately in RPMI-1640 complete medium (Gibco, A1049101) containing 20% fetal bovine serum (Gibco, 10099141C), 100 U penicillin, and 100 μg/mL streptomycin (Gibco, 15140-122). The Promega kit Cell Titer-Glo (Promega: G7572) was used in this method for test. • 1. HCC1954 (KIF18A-sensitive tumor cells) and HCC1395 (KIF18A-insensitive tumor cells) were cultured separately in T75 cell culture flasks (Corning, 430641), and the medium was placed in a 37° C., 5% CO2 incubator. • 2. When the cell density reached 70% to 80% (about 2 to 3 times per week), cells are passaged with trypsin (0.25% EDTA). • 3. The cell culture flask was taken out and the cells were separated by adding 2 mL of trypsin (0.25% EDTA source) for 5 minutes. • 4. Digestion was stopped by adding 8 mL of RPM1-1640 medium and the cell suspension was transferred to a centrifuge tube and centrifuged at 1000 rpm for 5 minutes. • 5. The cells were resuspended with 5 mL of RPMI-1640 medium. Cell density was adjusted to 5×10^3/mL (HCC1954), and 2.5×10^4/mL (HCC1395), respectively. • 6. 40 μL of cell solution was added to the 384-well plate (Corning, 3765). • 7. The 384-well plate was centrifuged at 1000 rpm for 1 minute. • 8. The cells were cultured overnight in a 37° C., 5% CO2 incubator. • 9. The next day, 40 nL of compound solution was added to the 384-well plate using Echo650. The plate was then placed in a 37° C., 5% CO2 incubator for 6 days. • 10. After 6 days, 20 μL of Cell-Titer-Glo (Promega, G7572) reagent was added per well. • 11. Luminescence values were measured using the EnVision Xcite Multilabel Reader (PerkinElmer, 2105-0020).
(§3) The percentage of inhibition of cell proliferation by the test compound at each concentration was calculated by comparing with the values of the control group (0.1% DMSO). The IC50 values of the compounds were obtained by concentration-inhibition rate nonlinear regression analysis of the test compounds using GraphPad Prism 9.
(In general: Cellular ATP, detected with luciferase, serves as a proxy for viable cell number.)

The next assay concerns OVCAR-3 cells. Briefly: OVCAR-3 cell proliferation (Cell Titer-Glo, 10 days). The assay is classed as cell-based, human. An outline of the steps:
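IC50 was fitted by nonlinear regression of percent inhibition versus the 0.1% DMSO control. Luminescence was read with Cell Titer-Glo after 10 days of co-culture of logarithmic-phase cells (400/well) with compound at 0.12 nM–10 μM final, in medium with 20% fetal bovine serum and 0.01 mg/mL insulin.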

In the next assay the test system is HCC1954 cells. The assay is described as follows: HCC1954 cell proliferation (Cell Titer-Glo, 6 days). The assay is classed as cell-based. To be noted: KIF18A-sensitive tumor cells. The procedure: as §1, §2, §3
Another assay addresses KIF18A (Homo sapiens (Human), UniProt Q8NI77). Briefly: KIF18A ATPase activity under tubulin stimulation (ADP-Glo assay). In kind it is biochemical. To be noted: KIF18A 30 nM, ATP 150 μM, pig microtubules. (ADP-Glo first removes unused ATP, then detects ADP through luciferase.)

KIF18A, sequence (Q8NI77 whole entry): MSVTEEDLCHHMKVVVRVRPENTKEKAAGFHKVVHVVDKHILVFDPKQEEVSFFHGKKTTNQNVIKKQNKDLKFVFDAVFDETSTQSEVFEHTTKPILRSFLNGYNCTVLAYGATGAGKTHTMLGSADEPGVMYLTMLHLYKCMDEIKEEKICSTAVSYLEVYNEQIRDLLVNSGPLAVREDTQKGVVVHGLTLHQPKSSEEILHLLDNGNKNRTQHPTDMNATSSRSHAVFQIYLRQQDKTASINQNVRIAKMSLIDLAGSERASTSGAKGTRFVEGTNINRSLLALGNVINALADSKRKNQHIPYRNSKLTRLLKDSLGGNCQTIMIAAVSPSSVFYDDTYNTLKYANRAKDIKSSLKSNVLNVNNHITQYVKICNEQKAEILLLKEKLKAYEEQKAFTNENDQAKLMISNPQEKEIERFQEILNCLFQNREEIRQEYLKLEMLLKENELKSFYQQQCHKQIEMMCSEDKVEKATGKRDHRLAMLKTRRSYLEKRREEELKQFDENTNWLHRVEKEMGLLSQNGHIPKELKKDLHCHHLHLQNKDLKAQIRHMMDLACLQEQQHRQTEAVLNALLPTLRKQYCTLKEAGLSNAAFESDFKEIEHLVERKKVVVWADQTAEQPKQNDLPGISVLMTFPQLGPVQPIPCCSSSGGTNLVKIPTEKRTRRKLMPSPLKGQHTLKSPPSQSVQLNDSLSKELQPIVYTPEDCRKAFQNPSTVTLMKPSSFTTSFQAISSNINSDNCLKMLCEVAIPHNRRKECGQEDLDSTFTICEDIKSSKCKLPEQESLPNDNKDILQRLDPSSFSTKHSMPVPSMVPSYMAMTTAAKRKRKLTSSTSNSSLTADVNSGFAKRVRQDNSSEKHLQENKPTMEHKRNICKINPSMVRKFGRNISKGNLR
KIF18A, sequence (P02550 whole entry partner): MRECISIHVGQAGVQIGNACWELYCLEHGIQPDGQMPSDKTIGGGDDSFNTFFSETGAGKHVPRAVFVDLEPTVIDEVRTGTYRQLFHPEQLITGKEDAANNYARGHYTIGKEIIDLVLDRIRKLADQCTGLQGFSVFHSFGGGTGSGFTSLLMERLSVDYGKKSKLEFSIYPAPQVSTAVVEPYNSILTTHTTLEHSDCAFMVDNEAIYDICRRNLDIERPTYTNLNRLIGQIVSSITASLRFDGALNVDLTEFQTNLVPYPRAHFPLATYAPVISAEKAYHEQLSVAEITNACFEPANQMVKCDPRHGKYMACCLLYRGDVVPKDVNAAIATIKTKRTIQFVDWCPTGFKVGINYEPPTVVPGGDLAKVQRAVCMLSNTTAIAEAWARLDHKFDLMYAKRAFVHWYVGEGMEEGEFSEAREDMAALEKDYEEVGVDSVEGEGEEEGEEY
KIF18A, sequence (P02554 whole entry partner): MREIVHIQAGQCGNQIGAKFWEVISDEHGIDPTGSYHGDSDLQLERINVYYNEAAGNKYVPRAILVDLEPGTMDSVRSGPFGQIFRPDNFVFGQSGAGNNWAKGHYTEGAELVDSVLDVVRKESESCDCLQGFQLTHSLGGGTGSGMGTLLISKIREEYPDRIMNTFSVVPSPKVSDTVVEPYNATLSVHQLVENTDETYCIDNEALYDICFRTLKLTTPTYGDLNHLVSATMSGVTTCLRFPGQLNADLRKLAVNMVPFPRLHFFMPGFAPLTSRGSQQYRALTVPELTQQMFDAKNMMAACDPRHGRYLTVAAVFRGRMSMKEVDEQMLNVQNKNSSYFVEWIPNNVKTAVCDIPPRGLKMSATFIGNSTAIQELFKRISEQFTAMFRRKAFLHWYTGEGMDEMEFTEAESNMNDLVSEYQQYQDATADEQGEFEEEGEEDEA

Take `O=C(Nc1cccc2c1ccn2CC1CC1)c1ccc(NS(=O)(=O)CCO)cc1N1CCC2(CC1)CC2` [Example 9, N-(1-(cyclopropylmethyl)-1H-indole-4-(2-hydroxyethyl)sulfonamido)-2-(6-azaspiro[2.5]octan-6-yl)benzamide]: the IC50 with HCC1395 cells is > 5 µM; in the assay with OVCAR-3 cells, 0.05 to 0.5 µM; in the assay with HCC1954 cells, 0.01 to 0.5 µM; on KIF18A it was ≤ 0.05 µM.
The like results for `O=C(Nc1cccc2c1cc(Cl)n2CC1CC1)c1ccc(NS(=O)(=O)CCO)cc1N1CCC2(CC1)CC2` [Example 13, N-(2-chloro-1-(cyclopropylmethyl)-1H-indol-4-yl)-4-((2-hydroxyethyl)sulfonamide)-2-(6-azaspiro[2.5]octan-6-yl)benzamide] were, in that order, > 5 µM, 0.05 to 0.5 µM, 0.01 to 0.5 µM and 0.05 to 0.5 µM.
Consider `O=C(Nc1cccc2c1ncn2CC1CC1)c1ccc(NS(=O)(=O)CCO)cc1N1CCC2(CC1)CC2` [Example 16], for which the IC50 with HCC1395 cells was > 5 µM; in the assay on OVCAR-3 cells, 0.05 to 0.5 µM; in the assay on HCC1954 cells it was 0.01 to 0.5 µM; at KIF18A, ≤ 0.05 µM.
For `O=C(Nc1cccc2c1oc(=O)n2CC1CC1)c1ccc(NS(=O)(=O)CCO)cc1N1CCC2(CC1)CC2` [Example 18, N-(3-(cyclopropylmethyl)-2-oxo-2,3-dihydrobenzo[d]oxazol-7-yl)-4-((2-hydroxyethyl)sulfonamido)-2-(6-azaspiro[2.5]oct-6-yl)benzamide], the IC50 in the assay on HCC1395 cells (Homo sapiens, HCC1395, 144 h) was > 5 µM; in the assay on OVCAR-3 cells (Homo sapiens, OVCAR-3, 240 h), 0.05 to 0.5 µM; in the assay on HCC1954 cells (Homo sapiens, HCC1954, 144 h) it was > 5 µM; against KIF18A, ≤ 0.05 µM.
For the compound `O=C(Nc1cc(F)cc2c1ccn2CC1CC1)c1ccc(NS(=O)(=O)CCO)cc1N1CCC2(CC1)CC2` [Example 50], the IC50 is > 5 µM in the assay on HCC1395 cells, 0.05 to 0.5 µM in the assay on OVCAR-3 cells, 0.01 to 0.5 µM with HCC1954 cells and 0.05 to 0.5 µM on KIF18A.
As to `O=C(Nc1ccc(F)c2c1ccn2CC1CC1)c1ccc(NS(=O)(=O)CCO)cc1N1CCC2(CC1)CC2` [Example 56, N-(1-(cyclopropylmethyl)-7-fluoro-1H-indol-4-yl)-4-((2-hydroxyethyl)sulfonamido)-2-(6-azaspiro[2.5]octan-6-yl)benzamide], the IC50 in the assay with HCC1395 cells (Homo sapiens, HCC1395, 144 h) is > 5 µM; in the assay with OVCAR-3 cells (Homo sapiens, OVCAR-3, 240 h), 0.05 to 0.5 µM; in the assay with HCC1954 cells (Homo sapiens, HCC1954, 144 h), 0.01 to 0.5 µM; at KIF18A, 0.05 to 0.5 µM.
Regarding `O=C(Nc1cccc2c1cc1n2CCCC1)c1ccc(NS(=O)(=O)CCO)cc1N1CCC2(CC1)CC2` [Example 126, 4-((2-hydroxyethyl)sulfonamide)-2-(6-azaspiro[2.5]octan-6-yl)-N-(6,7,8,9-tetrahydropyridine[1,2-a]indole-1)benzamide], the IC50 was > 5 µM with HCC1395 cells, 0.05 to 0.5 µM in the assay on OVCAR-3 cells, 0.01 to 0.5 µM with HCC1954 cells and ≤ 0.05 µM on KIF18A.
Turning to `CN1CCn2c(cc3c(NC(=O)c4ccc(NS(=O)(=O)CCO)cc4N4CCC5(CC4)CC5)cccc32)C1` [Example 234, 4-(2-hydroxyethyl)sulfonamido-N-(2-methyl-1,2,3,4-tetrahydropyrazino[1,2-a]indol-9-yl)-2-(6-azaspiro[2.5]octan-6-yl)benzamide], the IC50 is > 5 µM with HCC1395 cells (Homo sapiens, HCC1395, 144 h); 0.05 to 0.5 µM in the assay with OVCAR-3 cells (Homo sapiens, OVCAR-3, 240 h); 0.01 to 0.5 µM with HCC1954 cells (Homo sapiens, HCC1954, 144 h); 0.05 to 0.5 µM against KIF18A.
For the compound `O=C(Nc1cccc2nn(CC3CC3)cc12)c1ccc(NS(=O)(=O)CCO)cc1N1CCC2(CC1)CC2` [Example 269], the IC50 in the assay with HCC1395 cells is > 5 µM; in the assay with OVCAR-3 cells it was 0.05 to 0.5 µM; in the assay on HCC1954 cells, 0.01 to 0.5 µM; against KIF18A, ≤ 0.05 µM.
Consider `O=C(Nc1ccnc2c1cc1n2CCOC1)c1ccc(NS(=O)(=O)CCO)cc1N1CCC2(CC1)CC2` [Example 303, N-(8,9-dihydro-6H-pyrido[3′,2′:4,5]pyrrolo[2,1-c][1,4]oxazin-4-yl)-4-((2-hydroxyethyl)sulfonamido)-2-(6-azaspiro[2.5]octan-6-yl)benzamide], for which the IC50 in the assay on HCC1395 cells (Homo sapiens, HCC1395, 144 h) was > 5 µM; with OVCAR-3 cells (Homo sapiens, OVCAR-3, 240 h), 0.05 to 0.5 µM; in the assay with HCC1954 cells (Homo sapiens, HCC1954, 144 h), 0.01 to 0.5 µM; against KIF18A it was ≤ 0.05 µM.
For the compound `O=C(Nc1cccc2c1nc1n2CCOC1)c1ccc(NS(=O)(=O)CCO)cc1N1CCC2(CC1)CC2` [Example 304, N-(3,4-dihydro-1H-benzo[4,5]imidazo[2,1-c][1,4]oxazin-9-yl)-4-((2-hydroxyethyl)sulfonamido)-2-(6-azaspiro[2.5]octan-6-yl)benzamide], the IC50 in the assay on HCC1395 cells (Homo sapiens, HCC1395, 144 h) is > 5 µM; with OVCAR-3 cells (Homo sapiens, OVCAR-3, 240 h) it was ≤ 0.05 µM; in the assay with HCC1954 cells (Homo sapiens, HCC1954, 144 h), 0.01 to 0.5 µM; against KIF18A it was ≤ 0.05 µM.
On to `O=C(Nc1ccc(F)c2c1cc1n2CCOC1)c1ccc(NS(=O)(=O)CCO)cc1N1CCC2(CC1)CC2` [Example 305, N-(6-fluoro-3,4-dihydro-1H-[1,4]oxazino[4,3-a]indol-9-yl)-4-((2-hydroxyethyl)sulfonamido)-2-(6-azaspiro[2.5]oct-6-yl)benzamide], for which the IC50 was > 5 µM with HCC1395 cells (Homo sapiens, HCC1395, 144 h); 0.05 to 0.5 µM in the assay on OVCAR-3 cells (Homo sapiens, OVCAR-3, 240 h); 0.01 to 0.5 µM in the assay on HCC1954 cells (Homo sapiens, HCC1954, 144 h); ≤ 0.05 µM against KIF18A.
On to `CC1OCCn2c1cc1c(NC(=O)c3ccc(NS(=O)(=O)CCO)cc3N3CCC4(CC3)CC4)cccc12` (stereo not drawn) [Example 311, 4-((2-hydroxyethyl)sulfonamido)-N-(1-methyl-3,4-dihydro-1H-[1,4]oxazinyl[4,3-a]indol-9-yl)-2-(6-azaspiro[2.5]oct-6-yl)benzamide], for which the IC50 with HCC1395 cells was > 5 µM; with OVCAR-3 cells, ≤ 0.05 µM; in the assay with HCC1954 cells, 0.01 to 0.5 µM; against KIF18A, ≤ 0.05 µM.
With `CC1OCCn2c1cc1c(NC(=O)c3ccc(NS(=O)(=O)CCO)cc3N3CCC(=C(F)F)CC3)cccc12` (stereo not drawn) [Example 320, 2-(4-(difluoromethylene)piperidin-1-yl)-4-((2-hydroxyethyl)sulfonamido)-N-(1-methyl-3,4-dihydro-1H-[1,4]oxazino[4,3-a]indol-9-yl)benzamide], the IC50 in the assay with HCC1395 cells (Homo sapiens, HCC1395, 144 h) was > 5 µM; with OVCAR-3 cells (Homo sapiens, OVCAR-3, 240 h), ≤ 0.05 µM; with HCC1954 cells (Homo sapiens, HCC1954, 144 h), 0.01 to 0.5 µM; against KIF18A, 0.05 to 0.5 µM.
For `COC1c2cc3c(NC(=O)c4ccc(NS(=O)(=O)CCO)cc4N4CCC5(CC4)CC5)cccc3n2CCC1(F)F` (stereo not drawn) [Example 340, N-(8,8-difluoro-9-methoxy-6,7,8,9-tetrahydropyridino[1,2-a]indol-1-yl)-4-((2-hydroxyethyl)sulfonamido)-2-(6-azaspiro[2.5]oct-6-yl)benzamide], the IC50 with HCC1395 cells (Homo sapiens, HCC1395, 144 h) was > 5 µM; in the assay with OVCAR-3 cells (Homo sapiens, OVCAR-3, 240 h), ≤ 0.05 µM; in the assay with HCC1954 cells (Homo sapiens, HCC1954, 144 h), 0.01 to 0.5 µM; at KIF18A, 0.05 to 0.5 µM.

The values are drawn from patent US20260070887A1 (Shenzhen Zhongge Biological Technology Co., Ltd., priority 2022, published 2026).
